Test results published in US20190352358A1, “COMPOUNDS, COMPOSITIONS AND USES THEREOF FOR IMPROVEMENT OF BONE DISORDERS” (ALIZE PHARMA III SAS, priority 2017, published 2019).
Residues, ends and D or L forms follow the SMILES beside them. No end group written: not given here. *: point of attachment. Arachidoyl = CCCCCCCCCCCCCCCCCCCC(=O)*; Stearoyl = CCCCCCCCCCCCCCCCCC(=O)*; Palmitoyl = CCCCCCCCCCCCCCCC(=O)*

Assays:
[1] = Stability of HBD1 fragments in human plasma; assay type: in vitro ADME; conditions: for stability in human plasma (in words): 24 and 48 hours incubation at 37° C.; for Remaining parent peptide in human plasma 24 hours post spike / Remaining parent peptide in human plasma 48 hours post spike / remaining at 24 h, 1 μg/mL / remaining at 48 h, 1 μg/mL: spiked at 1 μg/mL, 37° C.; for remaining at 24 h, 1 μg/mL / remaining at 48 h, 1 μg/mL: human, human K2EDTA plasma; for remaining at 24 h, 1 μg/mL: read-out: Remaining parent peptide in human plasma 24 hours post spike; for remaining at 48 h, 1 μg/mL: read-out: Remaining parent peptide in human plasma 48 hours post spike
Protocol: The peptides were spiked at 1 μg/mL (peptide backbone) into pre-warmed human K2EDTA plasma (at 37° C.) and incubated for up to 48 hours. Aliquots of plasma were extracted at specific time points (0, 24 and 48 hours post spike). Extraction was performed with acetonitrile:water (75:25, v/v) for HBD1 (1-13), HBD1 (1-13) with palmitic acid at the N-terminus (C16:0), HBD1 (3-11) with palmitic acid at the N-terminus (C16:0)) and HBD1 (3-11) with stearic acid at the N-terminus (C18:0) or with acetonitrile:water:formic acid (75:25:0.1, v/v/v) for HBD1 (3-11) and cyclic HBD1 (3-11). The peptides were analyzed using developed LC (C18 reverse phase column)—positive ion electrospray MS/MS methods specific to each peptide. The peak area at each time point was expressed as a percentage of the value obtained for the t=0 minutes time point.

[2] = Pharmacokinetics in male Sprague Dawley rats after intravenous and subcutaneous injection (Example 10); assay type: in vivo; conditions: 1 μmol net peptide/kg, rat; for exposure after administration by either dose route (in words): iv and sc
Protocol: The peptides were reconstituted in saline (0.9% NaCl). Three male Sprague Dawley rats were used per group. Intravenous doses were administered into a lateral tail vein at the dose of 1 μmol net peptide/kg. Subcutaneous doses were administered into the right flank of each animal, also at the dose of 1 μmol net peptide/kg. Following dosing, serial whole blood samples (ca. 0.25 mL) were collected from a lateral tail vein into K2EDTA treated containers. Following each blood sample collection, samples were placed into a cooling block at 4° C. Samples were collected prior to dosing then at 2, 5, 15 and 30 minutes then 1, 2, 4, 6 and 8 and 24 hours post dose for intravenous injection and at 15 and 30 minutes then 1, 2, 4, 6, 8 and 24 hours post dose for subcutaneous injection.
Blood samples were centrifuged at 10000×g for 2 minutes at 4° C. and resultant plasma aspirated off into clean fully, labelled tubes. Plasma samples were snap frozen following aspiration then stored at −80° C. Peptides were extracted and analyzed as described in Example 9. The limits of quantification of these methods were 0.001 nmol/mL for cyclic HBD1 (3-11) and HBD1 (3-11) and 0.003 nmol/mL for HBD1 (1-13). All values below these limits of quantification were considered as zero.

[3] = system: MC-3T3 E1 clone 4 (CL4) osteoblast cells; test: Osteocalcin expression during in vitro osteoblast differentiation, acylated and cyclic analogs (Example 7); assay type: cell-based; conditions: Table 18; test peptide 1 μg/L; 18-21 day interval
Protocol: Each acylated peptide was tested in a biologic assay measuring its ability to stimulate differentiation of osteoblast cells over a 18-21 day interval as assessed by the stimulation of osteocalcin protein synthesis. MC-3T3 E1 clone 4 (CL4) osteoblast cells were obtained from ATCC (Manassas, Va., USA). Cells were cultured in α-MEM containing 10% fetal bovine serum (FBS; Thermo Fisher Scientific, Pittsburgh, Pa., USA). After confluency, culture medium was changed to differentiation medium (DM), which contained 10% FBS plus 50 μg/mL ascorbic acid and 4 mM β-glycerol phosphate, with or without a test peptide (1 μg/L). Fresh DM, with or without test peptide, was applied every 72 hours. The cell monolayers were lysed in a modified radioimmunoprecipitation assay (RIPA) buffer. Total cellular protein in the lysates was determined using BCA (Thermo Fisher Scientific, Rockford, Ill., USA). Cell proteins are separated on SDS-PAGE gel and transferred on PVDF membrane for analysis. Osteocalcin detection was performed using anti-osteocalcin antibody at 1:200 dilution (Santa Cruz Biotechnology, Inc, Santa Cruz, Calif., USA) and visualized using enhanced chemiluminescence (Thermo Fisher Scientific, Rockford, Ill., USA).
In a separate experiment, the effect of cyclization was examined on of the HBD1 (3-11) peptide. The cyclic HBD1 (3-11) was synthetized and tested on the in vitro osteoblast differentiation assay.

[4] = Pharmacokinetics of acylated analogs in male Sprague Dawley rats after subcutaneous injection (Example 11); assay type: in vivo; parameters: AUC(0-t): concentration or dose not given beside the values; conditions: sc, rat; for AUC(0-t) / Cmax / Tmax: male, Sprague Dawley, plasma; for AUC(0-t) / Cmax / Tmax / Tlast (last time point with detectable peptide): Table 24
Protocol: The peptides were reconstituted in saline (0.9% NaCl). Three male Sprague Dawley rats (approximately 6 weeks of age) were used per group. Subcutaneous doses were administered into the right flank of each animal […]. Following dosing, serial whole blood samples (ca. 0.3 mL) were collected from retro-orbital sinus into K2EDTA treated containers. Following each blood sample collection, samples were placed into a cooling block at 4° C. Samples were collected prior to dosing then at 15 and 30 minutes then 1, 2, 4, 6, 8 and 24 hours post dose for subcutaneous injection. Blood samples were centrifuged at 3500×rpm for 10 minutes at 4° C. and resultant plasma aspirated off into clean fully, labelled tubes. Plasma samples were snap frozen following aspiration then stored at −80° C. The peptides were extracted with acetonitrile:water (75:25, v/v) and analyzed using developed LC-MS/MS methods as described in Example 9. The limits of detection of these methods are 0.003 nmol/mL for HBD1 (1-13) with palmitic acid at the N-terminus (C16:0), 0.0008 nmol/mL for HBD1 (3-11) with palmitic acid at the N-terminus (C16:0), 0.0070 nmol/mL for HBD1 (3-11) with stearic acid at the N-terminus (C18:0), and 0.0015 nmol/mL for HBD1 (3-11) with myristic acid at the N-terminus (C14:0), HBD1 (3-11) with arachidic acid at the N-terminus (C20:0), HBD1 (3-11) with palmitic diacid at the N-terminus (C16:0-diacid), HBD1 (3-11) with palmitic acid at the C-terminus (C16:0). All values below these limits of quantification were considered as zero.

[5] = male, Sprague Dawley, plasma, iv
[6] = male, Sprague Dawley, plasma, sc

KHHLGLEEPKKLR [SEQ ID NO: 1, KHHLGLEEPKKLR, reference compound]
stability in human plasma (in words) [1]: markedly degraded | Remaining parent peptide in human plasma 24 hours post spike [1]: 29% | Remaining parent peptide in human plasma 48 hours post spike [1]: 18% | exposure after administration by either dose route (in words) [2]: no quantifiable exposure

HLGLEEPKK [compound 10]
remaining at 24 h, 1 μg/mL [1]: 92% | remaining at 48 h, 1 μg/mL [1]: 87%

CCCCCCCCCCCCCCCC(=O)N[C@@H](Cc1c[nH]cn1)C(=O)N[C@@H](CC(C)C)C(=O)NCC(=O)N[C@@H](CC(C)C)C(=O)N[C@@H](CCC(=O)O)C(=O)N[C@@H](CCC(=O)O)C(=O)N1CCC[C@H]1C(=O)N[C@@H](CCCCN)C(=O)N[C@@H](CCCCN)C(=O)O [SEQ ID NO: 72, C16:0-HLGLEEPKK] (Palmitoyl-HLGLEEPKK-OH; C-terminus assumed)
bioavailability ([2]; male, Sprague Dawley, plasma, subcutaneous, sc vs iv, read-out: F (bioavailability)): 35% | AUC(0-t) [2, 5]: 4.46 µM·h | Cmax [2, 5]: 7.89 µM | Tmax [2, 5]: 1.98 min | AUC(0-t) [2, 6]: 1.57 µM·h | Cmax [2, 6]: 0.41 µM | Tmax [2, 6]: 60 min

HLGLEEPKK [SEQ ID NO: 10, HLGLEEPKK]
stability in human plasma (in words) [1]: very stable | Remaining parent peptide in human plasma 24 hours post spike [1]: 92% | Remaining parent peptide in human plasma 48 hours post spike [1]: 87% | exposure after administration by either dose route (in words) [2]: no quantifiable exposure

KHHLGLEEPKKLR [compound 1]
remaining at 24 h, 1 μg/mL [1]: 29% | remaining at 48 h, 1 μg/mL [1]: 18%

CCCCCCCCCCCCCCCC(=O)N[C@@H](CCCCN)C(=O)N[C@@H](Cc1c[nH]cn1)C(=O)N[C@@H](Cc1c[nH]cn1)C(=O)N[C@@H](CC(C)C)C(=O)NCC(=O)N[C@@H](CC(C)C)C(=O)N[C@@H](CCC(=O)O)C(=O)N[C@@H](CCC(=O)O)C(=O)N1CCC[C@H]1C(=O)N[C@@H](CCCCN)C(=O)N[C@@H](CCCCN)C(=O)N[C@@H](CC(C)C)C(=O)N[C@@H](CCCNC(=N)N)C(=O)O [SEQ ID NO: 78, C16:0-KHHLGLEEPKKLR] (Palmitoyl-KHHLGLEEPKKLR-OH; C-terminus assumed)
Remaining parent peptide in human plasma 48 hours post spike [1]: 52%

CC(C)C[C@@H]1NC(=O)CNC(=O)[C@H](CC(C)C)NC(=O)[C@H](Cc2c[nH]cn2)NC(=O)[C@H](CCCCN)NC(=O)[C@H](CCCCN)NC(=O)[C@@H]2CCCN2C(=O)[C@H](CCC(=O)O)NC(=O)[C@H](CCC(=O)O)NC1=O [compound 77] (cyclo(EEPKKHLGL))
stability in human plasma (in words) [1]: similar | remaining at 24 h, 1 μg/mL [1]: 98% | remaining at 48 h, 1 μg/mL [1]: 95%

CCCCCCCCCCCCCCCCCCCC(=O)N[C@@H](Cc1c[nH]cn1)C(=O)N[C@@H](Cc1c[nH]cn1)C(=O)N[C@@H](CC(C)C)C(=O)NCC(=O)N[C@@H](CC(C)C)C(=O)N[C@@H](CCC(=O)O)C(=O)N[C@@H](CCC(=O)O)C(=O)N1CCC[C@H]1C(=O)N[C@@H](CCCCN)C(=O)N[C@@H](CCCCN)C(=O)O [compound 70] (Arachidoyl-HHLGLEEPKK-OH; C-terminus assumed)
Fold increase vs DM ± SE [3]: 2.11 ± 0.11 fold

CCCCCCCCCCCCCCCCCC(=O)N[C@@H](Cc1c[nH]cn1)C(=O)N[C@@H](Cc1c[nH]cn1)C(=O)N[C@@H](CC(C)C)C(=O)NCC(=O)N[C@@H](CC(C)C)C(=O)N[C@@H](CCC(=O)O)C(=O)N[C@@H](CCC(=O)O)C(=O)N1CCC[C@H]1C(=O)N[C@@H](CCCCN)C(=O)N[C@@H](CCCCN)C(=O)O [compound 69] (Stearoyl-HHLGLEEPKK-OH; C-terminus assumed)
Fold increase vs DM ± SE [3]: 2.48 ± 0.27 fold

CCCCCCCCCCCCCCCCCCCC(=O)N[C@@H](Cc1c[nH]cn1)C(=O)N[C@@H](CC(C)C)C(=O)NCC(=O)N[C@@H](CC(C)C)C(=O)N[C@@H](CCC(=O)O)C(=O)N[C@@H](CCC(=O)O)C(=O)N1CCC[C@H]1C(=O)N[C@@H](CCCCN)C(=O)N[C@@H](CCCCN)C(=O)O [SEQ ID NO: 74, C20:0-HLGLEEPKK] (Arachidoyl-HLGLEEPKK-OH; C-terminus assumed)
peptide exposure compared among acylated peptides (in words) [4]: lower exposure than HBD1 (3-11) with stearic acid at the N-terminus (C18:0)

CCCCCCCCCCCCCCCC(=O)N[C@@H](Cc1c[nH]cn1)C(=O)N[C@@H](Cc1c[nH]cn1)C(=O)N[C@@H](CC(C)C)C(=O)NCC(=O)N[C@@H](CC(C)C)C(=O)N[C@@H](CCC(=O)O)C(=O)N[C@@H](CCC(=O)O)C(=O)N1CCC[C@H]1C(=O)N[C@@H](CCCCN)C(=O)N[C@@H](CCCCN)C(=O)O [compound 68] (Palmitoyl-HHLGLEEPKK-OH; C-terminus assumed)
Fold increase vs DM ± SE [3]: 2.52 ± 0.52 fold

CCCCCCCCCCCCCCCC(=O)N[C@@H](CCCCN)C(=O)N[C@@H](Cc1c[nH]cn1)C(=O)N[C@@H](Cc1c[nH]cn1)C(=O)N[C@@H](CC(C)C)C(=O)NCC(=O)N[C@@H](CC(C)C)C(=O)N[C@@H](CCC(=O)O)C(=O)N[C@@H](CCC(=O)O)C(=O)N1CCC[C@H]1C(=O)N[C@@H](CCCCN)C(=O)N[C@@H](CCCCN)C(=O)N[C@@H](CC(C)C)C(=O)N[C@@H](CCCNC(=N)N)C(=O)O [compound 78] (Palmitoyl-KHHLGLEEPKKLR-OH)
remaining at 24 h, 1 μg/mL [1]: 58% | remaining at 48 h, 1 μg/mL [1]: 52% | AUC(0-t) [4]: 0.01 µM·h | Cmax [4]: 10 nM | Tmax [4]: 6 h | Tlast (last time point with detectable peptide) [4]: 8 h

CCCCCCCCCCCCCCCC(=O)N[C@@H](Cc1c[nH]cn1)C(=O)N[C@@H](CC(C)C)C(=O)NCC(=O)N[C@@H](CC(C)C)C(=O)N[C@@H](CCC(=O)O)C(=O)N[C@@H](CCC(=O)O)C(=O)N1CCC[C@H]1C(=O)N[C@@H](CCCCN)C(=O)N[C@@H](CCCCN)C(=O)O [compound 72] (Palmitoyl-HLGLEEPKK-OH)
stability in human plasma (in words) [1]: similar | remaining at 24 h, 1 μg/mL [1]: 94% | remaining at 48 h, 1 μg/mL [1]: 87% | AUC(0-t) [4]: 1.34 µM·h | Cmax [4]: 350 nM | Tmax [4]: 1 h | Tlast (last time point with detectable peptide) [4]: 8 h
